± gives the expanded uncertainty stated by the source.
Assay: mn = molality of the nth substance listed, in mol/kg
Conditions: 101.3 kPa, Liquid; for speed of sound: Frequency=2 MHz, Linear variable-path acoustic interferometer; for mass density: Pycnometric method

O=C(O)[C@]1(O)C[C@@H](O)[C@@H](O)[C@H](O)C1 + O
Conditions	mass density [kg/m3]	speed of sound [m/s]
278.15 K, m1 = 0.01	1000.73 ± 0.36	1427.1 ± 2.6
278.15 K, m1 = 0.0198	1001.5 ± 0.36	1428.1 ± 2.6
278.15 K, m1 = 0.0299	1002.27 ± 0.36	1429.2 ± 2.6
278.15 K, m1 = 0.0374	1002.84 ± 0.36	1429.9 ± 2.6
278.15 K, m1 = 0.0405	1003.09 ± 0.36	1430.2 ± 2.6
278.15 K, m1 = 0.0441	1003.35 ± 0.36	1430.6 ± 2.6
278.15 K, m1 = 0.0492	1003.74 ± 0.36	1431 ± 2.6
278.15 K, m1 = 0.0601	1004.55 ± 0.36	1432.1 ± 2.6
278.15 K, m1 = 0.0634	1004.82 ± 0.36	1432.4 ± 2.6
278.15 K, m1 = 0.072	1005.45 ± 0.36	1433.3 ± 2.6
278.15 K, m1 = 0.0815	1006.18 ± 0.36	1434.3 ± 2.6
278.15 K, m1 = 0.0892	1006.75 ± 0.36	1435 ± 2.6
278.15 K, m1 = 0.1001	1007.56 ± 0.36	1436.1 ± 2.6
288.15 K, m1 = 0.0096	999.82 ± 0.33	1466.7 ± 2.5
288.15 K, m1 = 0.0238	1000.89 ± 0.33	1467.9 ± 2.5
288.15 K, m1 = 0.0297	1001.32 ± 0.33	1468.4 ± 2.5
288.15 K, m1 = 0.0362	1001.8 ± 0.33	1468.9 ± 2.5
288.15 K, m1 = 0.0403	1002.1 ± 0.33	1469.3 ± 2.5
288.15 K, m1 = 0.0447	1002.43 ± 0.33	1469.6 ± 2.5
288.15 K, m1 = 0.0489	1002.74 ± 0.33	1470 ± 2.5
288.15 K, m1 = 0.0542	1003.11 ± 0.33	1470.4 ± 2.5
288.15 K, m1 = 0.061	1003.63 ± 0.33	1471 ± 2.5
288.15 K, m1 = 0.0683	1004.16 ± 0.33	1471.6 ± 2.5
288.15 K, m1 = 0.0795	1004.98 ± 0.33	1472.5 ± 2.5
288.15 K, m1 = 0.0869	1005.52 ± 0.33	1473.1 ± 2.5
288.15 K, m1 = 0.0992	1006.4 ± 0.33	1474.2 ± 2.5
298.15 K, m1 = 0.0096	997.74 ± 0.33	1497.4 ± 2.5
298.15 K, m1 = 0.0199	998.49 ± 0.33	1498.3 ± 2.5
298.15 K, m1 = 0.0254	998.89 ± 0.33	1498.7 ± 2.5
298.15 K, m1 = 0.0304	999.25 ± 0.33	1499.1 ± 2.5
298.15 K, m1 = 0.0385	999.83 ± 0.33	1499.7 ± 2.5
298.15 K, m1 = 0.0415	1000.05 ± 0.33	1500 ± 2.5
298.15 K, m1 = 0.0493	1000.6 ± 0.33	1500.6 ± 2.5
298.15 K, m1 = 0.0542	1000.95 ± 0.33	1501 ± 2.5
298.15 K, m1 = 0.061	1001.46 ± 0.33	1501.5 ± 2.5
298.15 K, m1 = 0.0716	1002.18 ± 0.33	1502.4 ± 2.5
298.15 K, m1 = 0.0786	1002.68 ± 0.33	1502.9 ± 2.5
298.15 K, m1 = 0.0869	1003.27 ± 0.33	1503.6 ± 2.5
298.15 K, m1 = 0.1007	1004.22 ± 0.33	1504.7 ± 2.5

Cl.N=C(N)N [guanidine hydrochloride] + O
Conditions	mass density [kg/m3]	speed of sound [m/s]
278.15 K, m1 = 0.0101	1000.29 ± 0.35	1427 ± 2.6
278.15 K, m1 = 0.0162	1000.5 ± 0.36	1427.5 ± 2.6
278.15 K, m1 = 0.0196	1000.61 ± 0.36	1427.8 ± 2.6
278.15 K, m1 = 0.0227	1000.7 ± 0.36	1428 ± 2.6
278.15 K, m1 = 0.0291	1000.91 ± 0.36	1428.5 ± 2.6
278.15 K, m1 = 0.039	1001.25 ± 0.36	1429.3 ± 2.6
278.15 K, m1 = 0.0501	1001.58 ± 0.36	1430.3 ± 2.6
278.15 K, m1 = 0.0586	1001.85 ± 0.36	1431 ± 2.6
278.15 K, m1 = 0.0619	1001.96 ± 0.36	1431.2 ± 2.6
278.15 K, m1 = 0.0685	1002.17 ± 0.36	1431.8 ± 2.6
278.15 K, m1 = 0.0807	1002.54 ± 0.36	1432.8 ± 2.6
278.15 K, m1 = 0.0882	1002.78 ± 0.36	1433.4 ± 2.6
278.15 K, m1 = 0.0981	1003.08 ± 0.36	1434.2 ± 2.6
288.15 K, m1 = 0.0102	999.41 ± 0.32	1466.6 ± 2.5
288.15 K, m1 = 0.0201	999.7 ± 0.32	1467.3 ± 2.5
288.15 K, m1 = 0.0267	999.9 ± 0.32	1467.8 ± 2.5
288.15 K, m1 = 0.0297	999.98 ± 0.33	1468 ± 2.5
288.15 K, m1 = 0.0387	1000.25 ± 0.33	1468.6 ± 2.5
288.15 K, m1 = 0.0437	1000.41 ± 0.33	1469 ± 2.5
288.15 K, m1 = 0.0502	1000.59 ± 0.33	1469.4 ± 2.5
288.15 K, m1 = 0.0598	1000.86 ± 0.33	1470.1 ± 2.5
288.15 K, m1 = 0.0634	1000.97 ± 0.33	1470.4 ± 2.5
288.15 K, m1 = 0.0697	1001.15 ± 0.33	1470.8 ± 2.5
288.15 K, m1 = 0.0798	1001.43 ± 0.33	1471.5 ± 2.5
288.15 K, m1 = 0.0926	1001.79 ± 0.33	1472.4 ± 2.5
288.15 K, m1 = 0.1009	1002.03 ± 0.33	1473 ± 2.5
298.15 K, m1 = 0.0101	997.34 ± 0.32	1497.4 ± 2.5
298.15 K, m1 = 0.0162	997.52 ± 0.32	1497.8 ± 2.5
298.15 K, m1 = 0.0196	997.61 ± 0.32	1497.9 ± 2.5
298.15 K, m1 = 0.0267	997.81 ± 0.33	1498.4 ± 2.5
298.15 K, m1 = 0.0299	997.9 ± 0.33	1498.6 ± 2.5
298.15 K, m1 = 0.0349	998.05 ± 0.33	1498.9 ± 2.5
298.15 K, m1 = 0.0401	998.17 ± 0.33	1499.2 ± 2.5
298.15 K, m1 = 0.0515	998.5 ± 0.33	1499.9 ± 2.5
298.15 K, m1 = 0.0586	998.7 ± 0.33	1500.4 ± 2.5
298.15 K, m1 = 0.0705	999.01 ± 0.33	1501.2 ± 2.5
298.15 K, m1 = 0.0807	999.29 ± 0.33	1501.8 ± 2.5
298.15 K, m1 = 0.0926	999.61 ± 0.33	1502.5 ± 2.5
298.15 K, m1 = 0.1009	999.84 ± 0.33	1503 ± 2.5

C=C[C@H]1CN2CC[C@H]1C[C@H]2[C@H](O)c1ccnc2ccc(OC)cc12.Cl [quinine hydrochloride] + O
Conditions	mass density [kg/m3]	speed of sound [m/s]
278.15 K, m1 = 0.0127	1001.09 ± 0.36	1429.3 ± 2.6
278.15 K, m1 = 0.0177	1001.51 ± 0.36	1430.5 ± 2.6
278.15 K, m1 = 0.0225	1001.92 ± 0.36	1431.7 ± 2.6
278.15 K, m1 = 0.0287	1002.46 ± 0.36	1433.3 ± 2.6
278.15 K, m1 = 0.0332	1002.86 ± 0.36	1434.4 ± 2.6
278.15 K, m1 = 0.0402	1003.44 ± 0.36	1436.2 ± 2.6
278.15 K, m1 = 0.048	1004.11 ± 0.36	1438.1 ± 2.6
278.15 K, m1 = 0.0603	1005.15 ± 0.36	1441.1 ± 2.6
278.15 K, m1 = 0.0653	1005.57 ± 0.36	1442.4 ± 2.6
278.15 K, m1 = 0.0698	1005.93 ± 0.36	1443.5 ± 2.6
278.15 K, m1 = 0.0798	1006.76 ± 0.36	1446 ± 2.6
278.15 K, m1 = 0.09	1007.59 ± 0.36	1448.5 ± 2.6
278.15 K, m1 = 0.0987	1008.29 ± 0.36	1450.7 ± 2.6
288.15 K, m1 = 0.0106	1000.01 ± 0.33	1468.3 ± 2.5
288.15 K, m1 = 0.0163	1000.5 ± 0.33	1469.6 ± 2.5
288.15 K, m1 = 0.022	1000.99 ± 0.33	1470.9 ± 2.5
288.15 K, m1 = 0.0294	1001.64 ± 0.33	1472.5 ± 2.5
288.15 K, m1 = 0.0361	1002.19 ± 0.33	1474 ± 2.5
288.15 K, m1 = 0.0396	1002.48 ± 0.33	1474.8 ± 2.5
288.15 K, m1 = 0.0491	1003.28 ± 0.33	1477 ± 2.5
288.15 K, m1 = 0.0552	1003.79 ± 0.33	1478.3 ± 2.5
288.15 K, m1 = 0.0598	1004.17 ± 0.33	1479.3 ± 2.5
288.15 K, m1 = 0.0687	1004.9 ± 0.33	1481.4 ± 2.5
288.15 K, m1 = 0.0785	1005.7 ± 0.33	1483.6 ± 2.5
288.15 K, m1 = 0.0881	1006.49 ± 0.33	1485.7 ± 2.5
288.15 K, m1 = 0.1019	1007.59 ± 0.33	1488.8 ± 2.5
298.15 K, m1 = 0.0109	997.96 ± 0.33	1499.2 ± 2.5
298.15 K, m1 = 0.0125	998.1 ± 0.33	1499.4 ± 2.5
298.15 K, m1 = 0.0199	998.7 ± 0.33	1501.1 ± 2.5
298.15 K, m1 = 0.0248	999.09 ± 0.33	1502.2 ± 2.5
298.15 K, m1 = 0.0286	999.45 ± 0.33	1502.9 ± 2.5
298.15 K, m1 = 0.0378	1000.17 ± 0.33	1504.9 ± 2.5
298.15 K, m1 = 0.0473	1000.94 ± 0.33	1506.9 ± 2.5
298.15 K, m1 = 0.0544	1001.52 ± 0.33	1508.5 ± 2.5
298.15 K, m1 = 0.0594	1001.93 ± 0.33	1509.4 ± 2.5
298.15 K, m1 = 0.0677	1002.6 ± 0.33	1511.4 ± 2.5
298.15 K, m1 = 0.0785	1003.46 ± 0.33	1513.7 ± 2.5
298.15 K, m1 = 0.0881	1004.22 ± 0.33	1515.8 ± 2.5
298.15 K, m1 = 0.0987	1005.05 ± 0.33	1518.1 ± 2.5

O [water] + C=C[C@H]1CN2CC[C@H]1C[C@H]2[C@H](O)c1ccnc2ccc(OC)cc12.Cl
278.15 K, m2 = 0
Conditions	mass density [kg/m3]	speed of sound [m/s]
–	999.96 ± 0.36	1426.2 ± 2.6

O [water] + Cl.N=C(N)N
278.15 K, m2 = 0
Conditions	mass density [kg/m3]	speed of sound [m/s]
–	999.96 ± 0.35	1426.2 ± 2.6

O [water] + O=C(O)[C@]1(O)C[C@@H](O)[C@@H](O)[C@H](O)C1
278.15 K, m2 = 0
Conditions	mass density [kg/m3]	speed of sound [m/s]
–	999.96 ± 0.35	1426.2 ± 2.6
